# Test results taken from PMC4105752 (RNA, 2014).
# Target: T1, TbEIF4E5 (TbE5) (Trypanosoma brucei, UniProt Q38B99)
# T1 sequence (Q38B99 1-195): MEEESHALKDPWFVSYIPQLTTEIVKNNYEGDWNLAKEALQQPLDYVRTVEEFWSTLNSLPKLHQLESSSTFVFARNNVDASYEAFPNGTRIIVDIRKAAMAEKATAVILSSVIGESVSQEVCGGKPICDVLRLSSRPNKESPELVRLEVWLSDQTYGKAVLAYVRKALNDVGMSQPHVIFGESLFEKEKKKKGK
# Test: intrinsic protein fluorescence quenching titration
# Type: binding
Compound,Kd [µM],"Kas (50 mM HEPES/KOH pH 7.2, 100 mM KCl, 0.5 mM EDTA, 2 mM DTT, 20 °C)"
Nc1nc2c(ncn2[C@@H]2O[C@H](COP(=O)(O)OP(=O)(O)OP(=O)(O)O)[C@@H](O)[C@H]2O)c(=O)[nH]1 [GTP],~27,–
C[n+]1cn([C@@H]2O[C@H](COP(=O)(O)OP(=O)(O)OP(=O)(O)O)[C@@H](O)[C@H]2O)c2nc(N)[nH]c(=O)c21 [m^7GTP],1.54,–
C[n+]1cn([C@@H]2O[C@H](COP(=O)(O)OP(=O)(O)OP(=O)(O)OC[C@H]3O[C@@H](n4cnc5c(N)ncnc54)[C@H](O)[C@@H]3O)[C@@H](O)[C@H]2O)c2nc(N)[nH]c(=O)c21 [m^7GpppA],8.33,–
cap 4,–,0.55 ± 0.01
